This assay deals with P388 leukemia ip, CD2F1 mice, survival T/C. As to the kind of experiment: NCI In Vivo Anticancer Drug Screen. Data for tumor model P388 Leukemia (intraperitoneal) in CD2F1 (CDF1) mice. The settings on record: endpoint: median survival time, higher = longer survival. In outline:
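Mice carrying the transplanted tumor received test compound or vehicle. Survival was recorded in each group, and the value is the treated-group measurement divided by that of the vehicle-treated control group.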

Where [1] appears, read: dose: 50.0 mg/kg/injection, schedule: Q01DX005 (ip), vehicle: saline.
Setting [2] is: dose: 50.0 mg/kg/injection, schedule: Q01DX009 (ip), vehicle: saline with Tween-80.
[3] abbreviates: dose: 100.0 mg/kg/injection, schedule: Q01DX009 (ip), vehicle: saline with Tween-80.
[4] abbreviates: dose: 50.0 mg/kg/injection, schedule: Q01DX009 (ip), vehicle: Klucel (hydroxypropylcellulose) (HPC).
The mark [5] stands for this setting: dose: 100.0 mg/kg/injection, schedule: Q01DX009 (ip), vehicle: Klucel (hydroxypropylcellulose) (HPC).
The mark [6] stands for this setting: dose: 200.0 mg/kg/injection, schedule: Q01DX009 (ip), vehicle: Klucel (hydroxypropylcellulose) (HPC).
Setting [7] is: dose: 60.0 mg/kg/injection, schedule: Q01DX005 (ip), vehicle: saline with Tween-80.

Drawing on PubChem BioAssay AID330 (DTP/NCI, 2004), this text covers T/C for 13 compounds.

Where “and” joins values, the source holds several entries; their conditions need not be identical. Identical values can stand only once. Toxic doses and inconclusive results are not listed.

For `CC(=O)N(C)c1ccc(Nc2cc(C)[nH]c3ccc4ncnc4c23)cc1`, the T/C was 120 % of control and 122 % of control (dose: 5.0 mg/kg/injection, schedule: Q01DX005 (ip), vehicle: saline); 100 % of control (dose: 6.25 mg/kg/injection, schedule: Q01DX005 (iv), vehicle: saline); 121 % of control and 123 % of control (dose: 7.0 mg/kg/injection, schedule: Q01DX005 (ip), vehicle: saline); 123 % of control (dose: 11.0 mg/kg/injection, schedule: Q01DX005 (ip), vehicle: saline); 104 % of control (dose: 12.5 mg/kg/injection, schedule: Q01DX001 (iv), vehicle: saline); 106 % of control (dose: 12.5 mg/kg/injection, schedule: Q01DX005 (iv), vehicle: saline). The T/C runs as follows: (dose: 12.5 mg/kg/injection, schedule: Q01DX005 (oral), vehicle: saline) 101 % of control; (dose: 12.5 mg/kg/injection, schedule: Q01DX009 (oral), vehicle: saline) 95 % of control; (dose: 25.0 mg/kg/injection, schedule: Q01DX001 (ip), vehicle: saline) 110 % of control; (dose: 25.0 mg/kg/injection, schedule: Q01DX001 (iv), vehicle: saline) 100 % of control; (dose: 25.0 mg/kg/injection, schedule: Q01DX001 (oral), vehicle: saline) 101 % of control; (dose: 25.0 mg/kg/injection, schedule: Q01DX005 (iv), vehicle: saline) 105 % of control. The T/C was 100 % of control (dose: 25.0 mg/kg/injection, schedule: Q01DX005 (oral), vehicle: saline); 94 % of control (dose: 25.0 mg/kg/injection, schedule: Q01DX009 (oral), vehicle: saline); 123 % of control (dose: 50.0 mg/kg/injection, schedule: Q01DX001 (ip), vehicle: saline); 103 % of control (dose: 50.0 mg/kg/injection, schedule: Q01DX001 (iv), vehicle: saline); 99 % of control (dose: 50.0 mg/kg/injection, schedule: Q01DX001 (oral), vehicle: saline); 155 % of control under setting [1]. In addition, the T/C is 100 % of control (dose: 50.0 mg/kg/injection, schedule: Q01DX005 (iv), vehicle: saline); 103 % of control (dose: 50.0 mg/kg/injection, schedule: Q01DX005 (oral), vehicle: saline); 103 % of control (dose: 50.0 mg/kg/injection, schedule: Q01DX009 (oral), vehicle: saline); 158 % of control (dose: 90.0 mg/kg/injection, schedule: Q04DX002 (ip), vehicle: saline); 157 % of control (dose: 100.0 mg/kg/injection, schedule: Q01DX001 (ip), vehicle: saline); 124 % of control (dose: 100.0 mg/kg/injection, schedule: Q01DX001 (iv), vehicle: saline). The T/C was 101 % of control (dose: 100.0 mg/kg/injection, schedule: Q01DX001 (oral), vehicle: saline); 97 % of control (dose: 100.0 mg/kg/injection, schedule: Q01DX005 (oral), vehicle: saline); 104 % of control (dose: 100.0 mg/kg/injection, schedule: Q01DX009 (oral), vehicle: saline); 105 % of control (dose: 200.0 mg/kg/injection, schedule: Q01DX001 (oral), vehicle: saline); 103 % of control (dose: 200.0 mg/kg/injection, schedule: Q01DX005 (oral), vehicle: saline); 100 % of control (dose: 200.0 mg/kg/injection, schedule: Q01DX009 (oral), vehicle: saline). Further, the T/C is 102 % of control (dose: 300.0 mg/kg/injection, schedule: Q01DX001 (oral), vehicle: saline); 106 % of control (dose: 300.0 mg/kg/injection, schedule: Q01DX005 (oral), vehicle: saline); 106 % of control (dose: 400.0 mg/kg/injection, schedule: Q01DX001 (oral), vehicle: saline); 119 % of control (dose: 600.0 mg/kg/injection, schedule: Q01DX001 (oral), vehicle: saline); 119 % of control (dose: 600.0 mg/kg/injection, schedule: Q01DX005 (oral), vehicle: saline); 119 % of control (dose: 1200.0 mg/kg/injection, schedule: Q01DX001 (oral), vehicle: saline).
`C/C(=N\NC(=S)NCc1ccccc1)c1nccnc1C`: the T/C (dose: 3.13 mg/kg/injection, schedule: Q01DX005 (ip), vehicle: saline with Tween-80) was 104 % of control; the T/C (dose: 6.25 mg/kg/injection, schedule: Q01DX005 (ip), vehicle: saline with Tween-80) was 109 % of control and 112 % of control.
With `CC1(C)C=CC2=C(O1)C(=O)c1ccccc1C2=O`, the T/C by setting is: (dose: 25.0 mg/kg/injection, schedule: Q01DX009 (ip), vehicle: water) 101 % of control; (dose: 50.0 mg/kg/injection, schedule: Q01DX009 (ip), vehicle: water) 107 % of control; (dose: 100.0 mg/kg/injection, schedule: Q01DX009 (ip), vehicle: water) 115 % of control; (dose: 200.0 mg/kg/injection, schedule: Q01DX009 (ip), vehicle: water) 110 % of control.
Regarding `O=C1CSC2(CCN(CCCN3c4ccccc4Sc4ccc(Cl)cc43)CC2)N1`, the T/C is, setting by setting: under setting [2], 98 % of control; under setting [3], 116 % of control.
With `CN(C)NC(=S)SCCC(=O)O`, the T/C is, setting by setting: under setting [4], 99 % of control; under setting [5], 96 % of control; under setting [6], 92 % of control.
In the case of `CC1CCC(C(C)C2C(O)CC3C4CCC5CC(N)CCC5(C)C4CCC32C)=NC1` (centres undefined) (tested in a mixture with another compound), the T/C reads like this: (dose: 6.25 mg/kg/injection, schedule: Q01DX009 (ip), vehicle: Klucel (hydroxypropylcellulose) (HPC)) 100 % of control; (dose: 12.5 mg/kg/injection, schedule: Q01DX009 (ip), vehicle: Klucel (hydroxypropylcellulose) (HPC)) 94 % of control; (dose: 25.0 mg/kg/injection, schedule: Q01DX009 (ip), vehicle: Klucel (hydroxypropylcellulose) (HPC)) 105 % of control.
For `C=C1C(=O)O[C@@H]2C[C@@H](C)[C@@H]3C=CC(=O)[C@@]3(C)[C@@H](OC(=O)CCCC(=O)O[C@H]3[C@@H]4C(=C)C(=O)O[C@@H]4C[C@@H](C)[C@@H]4C=CC(=O)[C@]43C)[C@H]12`, the T/C (dose: 0.39 mg/kg/injection, schedule: Q01DX005 (ip), vehicle: Klucel (hydroxypropylcellulose) (HPC)) was 101 % of control; the T/C (dose: 0.78 mg/kg/injection, schedule: Q01DX005 (ip), vehicle: Klucel (hydroxypropylcellulose) (HPC)) was 100 % of control; the T/C (dose: 1.56 mg/kg/injection, schedule: Q01DX005 (ip), vehicle: Klucel (hydroxypropylcellulose) (HPC)) was 103 % of control and 118 % of control; the T/C (dose: 3.12 mg/kg/injection, schedule: Q01DX005 (ip), vehicle: Klucel (hydroxypropylcellulose) (HPC)) is 116 % of control; the T/C (dose: 6.25 mg/kg/injection, schedule: Q01DX005 (ip), vehicle: Klucel (hydroxypropylcellulose) (HPC)) is 109 % of control.
`CC(=NC(C)(C)C)N1CCCC1`: the T/C is, setting by setting: (dose: 12.5 mg/kg/injection, schedule: Q01DX005 (ip), vehicle: saline) 102 % of control; (dose: 25.0 mg/kg/injection, schedule: Q01DX005 (ip), vehicle: saline) 102 % of control; under setting [1], 101 % of control; (dose: 100.0 mg/kg/injection, schedule: Q01DX005 (ip), vehicle: saline) 95 % of control.
Turning to `O=[N+]([O-])c1cccc(NC(c2ccc(N(CCCl)CCCl)cc2)P(=O)(Oc2ccccc2)Oc2ccccc2)c1` (centres undefined), the T/C by setting is: under setting [4], 95 % of control; under setting [5], 98 % of control; under setting [6], 95 % of control.
For `CCCCCCCC/C=C\CCCCCCCC(=O)OCCN(CCOC(=O)CCCCCCC/C=C/CCCCCCCC)C(=O)COC(=O)CCCCCCC/C=C\CCCCCCCC`, the T/C runs as follows: under setting [2], 104 % of control; under setting [3], 104 % of control; (dose: 200.0 mg/kg/injection, schedule: Q01DX009 (ip), vehicle: saline with Tween-80) 104 % of control.
For the compound `Cc1nc([N+](=O)[O-])cn1-c1nc2ccccn2c1[N+](=O)[O-]`, the T/C is 92 % of control under setting [4], 94 % of control under setting [5] and 91 % of control under setting [6].
As for `CC(=O)OCc1c(-c2ccccc2)c(=O)c1=O`, the T/C reads like this: (dose: 15.0 mg/kg/injection, schedule: Q01DX005 (ip), vehicle: saline with Tween-80) 100 % of control; (dose: 30.0 mg/kg/injection, schedule: Q01DX005 (ip), vehicle: saline with Tween-80) 103 % of control; (dose: 60.0 mg/kg/injection, schedule: Q01DX005 (ip), vehicle: Klucel (hydroxypropylcellulose) (HPC)) 108 % of control; under setting [7], 106 % of control.
For the compound `O=C(Nc1c(Cl)cccc1Cl)Oc1ccc(Cl)cc1`, the T/C reads like this: under setting [7], 122 % of control; (dose: 120.0 mg/kg/injection, schedule: Q01DX005 (ip), vehicle: saline with Tween-80) 114 % of control.
